Measured values published in patent US20230355622A1, “METHODS OF CHEMOVACCINATION AGAINST PLASMODIUM INFECTIONS” (Merck Sharp & Dohme LLC, priority 2020, published 2023).

Tests used:
[1] = system: parasite; experiment: Parasite LDH growth assay (Parasite Assay), antiparasite potency; assay type: cell-based; conditions: 72 h
Outline: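 Growth was read by an LDH assay after a freeze–thaw cycle (−80 °C overnight, 4 h thaw at RT). Before that, parasites grew with compound for 72 h at 37 °C under gassed, humidified conditions. The input was a ring-stage culture adjusted to 0.7% parasitemia and 2% haematocrit in serum (5%)/albumax (0.5%)-supplemented RPMI-Hepes.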

[2] = biological target: PMX (Plasmodium falciparum, UniProt Q8IAS0); conditions: P. falciparum parasites incubated with compound; SERA5 120 kDa, processed by SUB1
PMX, sequence (Q8IAS0 222-573): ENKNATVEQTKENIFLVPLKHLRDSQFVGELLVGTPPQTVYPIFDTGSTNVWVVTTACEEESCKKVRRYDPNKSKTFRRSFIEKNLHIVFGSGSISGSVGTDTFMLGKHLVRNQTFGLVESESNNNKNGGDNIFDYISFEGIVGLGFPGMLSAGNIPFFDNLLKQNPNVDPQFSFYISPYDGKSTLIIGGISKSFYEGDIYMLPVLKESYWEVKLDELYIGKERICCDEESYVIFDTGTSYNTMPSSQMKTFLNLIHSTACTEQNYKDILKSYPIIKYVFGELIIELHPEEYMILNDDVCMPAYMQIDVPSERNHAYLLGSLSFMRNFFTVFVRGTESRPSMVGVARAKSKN
Text: SERA5 is a 120 kDa protein required for merozoite egress and is processed by subtilisin-like protease subtilisin 1 (SUB1) to release a soluble polypeptide of approximately 50 kDa (Pino, P., Caldelari, R., Mukherjee, B., Vahokoski, J., Klages, N., Maco, B., et al. (2017). A multistage antimalarial targets the plasmepsins IX and X essential for invasion and egress. Science 358, 522-528). […] SERA5 was included as a control in all subsequent experiments as a proxy for PMX-mediated activation of SUB1.

[3] = system: PMIX; experiment: Cleavage of PMIX substrates RAP1 and ASP in parasite extracts; assay type: cell-based, P. falciparum
Experimental: To confirm that Example 1A was a dual inhibitor of PMIX and PMX function, the ability of this compound to inhibit cleavage of the known PMIX substrate Rhoptry Associated Protein 1 (RAPI) in parasite extracts was tested (Pino et al., 2017). RAP1 is a merozoite rhoptry protein that is localized to the parasitophorous vacuole after invasion and processed by both PMIX and SUB1 (Pino et al., 2017). […] RAP1 was not released into the parasite supernatant because it was deposited in the parasitophorous vacuole during the invasion process (Baldi, D., Andrews, K., Waller, R., Roos, D., Howard, R., Crabb, B. and Cowman, A. (2000)). RAP1 controls rhoptry targeting of RAP2 in the malaria parasite Plasmodium falciparum. Embo Journal 19, 2435-2443.

[4] = system: P. berghei sporozoites expressing mCherry and Luciferase (PbmCherryLuci); experiment: Chemoprotection of BALB/c mice infected with PbmCherryLuci sporozoites (FIG. 1); assay type: in vivo, Plasmodium berghei; conditions: female BALB/c mice, 40,000 sporozoites i.v.; treated twice by oral gavage at 36 and 48 hours during liver infection; 30 days monitoring
Experimental: (§1) 40,000 PbmCherryLuci sporozoites (or the indicated number of sporozoites) were inoculated i.v. and compounds were administered by oral gavage at indicated time points during liver infection. Liver infection levels and egress of parasites from the liver were measured by bioluminescence signal from the parasites using an In Vivo Imaging System (IVIS, Perkin Elmer) at the peak of liver infection (52 hours post infection, hpi), during liver egress (55 hpi) as well as during the first round of blood infection (65 hpi). Initiation of blood infection was also measured by flow cytometry at 65 hpi using the mCherry reporter to determine the parasitemia of this first round of blood infection. These analyses allowed quantification of the efficacy of drug killing of parasites in the liver (52 hpi), preventing their egress from the liver (55 hpi) or preventing their successful infection of the blood (65 hpi). Mice were monitored by giemsa stained thin blood smears for the presence of parasites in the blood for 30 days post infection. If no blood infection was seen during the subsequent 30 days, mice were declared cured of malaria infection.
Mice were infected with 40,000 P. berghei sporozoites expressing mCherry and Luciferase (PbmCherryLuci) and treated with Example 1A as described above. […]

[5] = system: PbmCherryLuci; experiment: Rechallenge of chemo-protected mice by mosquito bite infection at 6 and 12 months (FIG. 2A, 2B); assay type: in vivo, Plasmodium berghei; conditions: 15 infected mosquito bites
Text: Previously chemo-protected mice were rechallenged with PbmCherryLuci 6 months later by mosquito bite infection. […] In both experiments naïve, sex matched control mice all became infected as expected. Thus in addition to chemoprotection, Example IA could possibly act as a chemovaccination to protect against future infections for one year or more.

[6] = system: PbmCherryLuci salivary gland sporozoites in HepG2 human hepatoma cells; experiment: In vitro infection assay: immune serum inhibition of sporozoite infection of HepG2 cells (FIG. 3); assay type: cell-based, Plasmodium berghei; conditions: serum of five BALB/c mice immunised ten months prior, 1 in 20 dilution, 48 h, versus naive serum
Experimental: To initiate the in vitro infection assay, 30,000 HepG2 human hepatoma cells were seeded into a 96-well plate format the day before infection. The day of infection, freshly dissected PbmCherryLuci salivary gland sporozoites were incubated with a 1 in 20 dilution of either naïve BALB/c serum (from n=5 mice) or immune serum (from n=5 mice) in culture media and added to HepG2 wells in technical triplicate. Serum samples were not pooled, so the response from five individual mice was analysed independently. Forty-eight hours after infection the infected cells were fixed with 4% formaldehyde and imaged using an Opera Phenix High Content Imager (PerkinElmer). The number of parasites in each well was counted using the mCherry reporter expressed by these parasites, the average number of parasites between the technical triplicates averaged for each serum sample, and the average for each mouse presented.

[7] = system: PbmCherryLuci sporozoites; experiment: Inhibition of liver to blood transition in C57BL/6 mice (FIG. 8); assay type: in vivo, Plasmodium berghei; conditions: oral gavage during liver infection
Experimental: as §1
C57BL/6 mice were administered Example 1A or Example 75A as described in the general experimental procedure.

[8] = system: P. falciparum salivary gland sporozoites; experiment: Chemoprophylaxis of humanised (FRG) mice infected with P. falciparum sporozoites (FIG. 10); assay type: in vivo; conditions: FRG mouse with human hepatocytes, 300,000 sporozoites i.v.; four oral treatments 100 mg/kg at day 5, 5.5, 6, 6.5
Experimental: Four immunocompromised mice engrafted with human hepatocytes (FRG mice, Yecuris, OR, USA) were each infected intravenously with 300,000 freshly dissected P. falciparum salivary gland sporozoites. Three mice received no treatment, while one mouse received four oral treatments with 100 mg/kg Example 1A during P. falciparum liver stage development (at day 5, day 5.5, day 6 and day 6.5 post infection). […] On day 7 post infection all mice were bled, and the blood cultured under standard culture conditions at 4% hematocrit with 1% oxygen. Fresh hematocrit was added to the cultures each week to provide fresh host cells for infection, and cultures were analysed for the presence of blood parasites 2-3 times per week by inspection of Giemsa-stained thin blood smears.

In the case of `CCC1(CC)CC(=O)N(C2CCOc3ccc(C(=O)N[C@H]4CC(C)(C)Oc5ccccc54)cc32)C(=N)N1` (stereo partly drawn) [Example 1A, 4-(4,4-diethyl-2-imino-6-oxotetrahydropyrimidin-1(2H)-yl)-N—((S)-2,2-dimethylchroman-4-yl)chroman-6-carboxamide], the EC50 [1] is reported as 0.5 nM, the SERA5 processing [2] is reported as “accumulation of unprocessed SERA5 at 120 kDa” and the “RAP1 processing by PMIX and SUB1” value ([3]; treated parasites/merozoites, processed forms p82 and p69, unprocessed p87) is reported as “only the unprocessed p87 form of RAP1 was present”. The “Apical Sushi Protein (ASP) processing by PMIX” value ([3]; treated parasites, p47 processed, p87 full-length) was “cleavage event was inhibited”, the “cure of infection / prevention of subsequent blood infection” value [4] was “cured mice of infection” and the “immunity to reinfection challenge” value ([5]; rechallenge 6 months later) was “all mice were subsequently immune”. For the same compound, the “mice fully protected on rechallenge” value ([5]; rechallenge 12 months after chemoprotection) was “Four of five mice were again fully protected”, the “inhibition of HepG2 infection by immune serum” value [6] was “inhibition of infection using the serum from each of the five immunised mice” and the “infection of the blood” value [7] was “completely prevented infection of the blood in all mice”. The “blood parasites in culture of blood taken day 7 post infection” value [8] was “remained negative for blood parasites over an eight-week observation period”.
